Reference: patent publication US12091426B2, “Bifunctional degraders of hematopoietic progenitor kinase and therapeutic uses thereof” (Nurix Therapeutics, Inc., priority 2021, dated 2024)

Target: T1, HPK1 (Homo sapiens, UniProt Q92918)
T1 construct: A HiBiT tag was introduced by CRISPR on the N terminus of HPK1 in Jurkat cells; host or cells: Jurkat cells (ATCC TIB-152), monoclonal line with CRISPR knock-in of HiBiT at the endogenous HPK1 locus
Experiment: HPK1 Cellular HiBit Degradation Assay
Format: cell-based
Conditions: HiBiT HPK1 Jurkat cells, 24 hrs; for DC50: concentration at which 50% of HPK1 was remaining, read-out: DC50 Category; for Dmax: Jurkat, maximum degradation vs DMSO vehicle control, read-out: Dmax Category
Outline: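 HPK1 levels are read by HiBiT luminescence after 24 h exposure of HiBiT-knock-in Jurkat cells to compound at 10 uM–0.1 nM final (11 points). Relative to DMSO (100%), DC50 is the concentration leaving 50% HPK1 from a variable-slope fit, and Dmax is 100 minus minimum remaining. Viability checked in-plate.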

T1 sequence (Q92918 whole entry): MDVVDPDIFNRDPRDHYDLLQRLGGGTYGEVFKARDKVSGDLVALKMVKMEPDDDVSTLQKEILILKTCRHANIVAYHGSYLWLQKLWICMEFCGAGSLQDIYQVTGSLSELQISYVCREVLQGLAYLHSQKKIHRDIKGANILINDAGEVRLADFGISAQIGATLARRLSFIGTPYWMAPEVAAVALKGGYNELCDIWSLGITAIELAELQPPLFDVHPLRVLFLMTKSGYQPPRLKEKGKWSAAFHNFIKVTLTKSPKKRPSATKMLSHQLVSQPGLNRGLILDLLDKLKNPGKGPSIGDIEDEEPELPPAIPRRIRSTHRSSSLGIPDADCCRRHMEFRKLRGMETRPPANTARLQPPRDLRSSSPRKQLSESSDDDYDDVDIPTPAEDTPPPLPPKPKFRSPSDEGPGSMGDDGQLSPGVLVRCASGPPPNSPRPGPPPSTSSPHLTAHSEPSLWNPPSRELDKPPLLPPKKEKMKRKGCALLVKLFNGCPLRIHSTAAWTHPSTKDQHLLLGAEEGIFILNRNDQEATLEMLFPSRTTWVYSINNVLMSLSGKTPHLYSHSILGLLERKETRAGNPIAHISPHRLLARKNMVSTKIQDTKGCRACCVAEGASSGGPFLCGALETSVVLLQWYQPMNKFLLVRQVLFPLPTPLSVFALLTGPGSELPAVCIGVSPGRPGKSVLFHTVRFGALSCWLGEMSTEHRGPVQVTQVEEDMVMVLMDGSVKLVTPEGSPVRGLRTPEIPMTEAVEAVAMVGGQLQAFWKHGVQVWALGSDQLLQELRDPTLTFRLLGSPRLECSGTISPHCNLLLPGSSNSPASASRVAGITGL

DC50 [nM]	Dmax [%]	SMILES
< 100	70 to 85	CC(C)n1cnc2cc(-c3ccc4c(c3)N([C@H]3C[C@@H](N5CCCCC5)C3)C(=O)C43CCN(C(=O)C4CCN(C(=O)C5CCN(c6ccc(N7CCC(=O)NC7=O)cc6)CC5)CC4)CC3)nc(NC3CC3)c21 [Example 69, 1-(4-{4-[4-({6-[4-(cyclopropylamino)-3-(propan-2-yl)-3h-imidazo[4,5-c]pyridin-6-yl]-2-oxo-1-[(1S,3S)-3-(piperidin-1-yl)cyclobutyl]-1,2-dihydrospiro[indole-3,4′-piperidin]-1′-yl}carbonyl)piperidine-1-carbonyl]piperidin-1-yl}phenyl)-1,3-diazinane-2,4-dione]
< 100	70 to 85	CC(C)n1cnc2cc(-c3ccc4c(c3)N([C@H]3C[C@@H](N5CCCCC5)C3)C(=O)C43CCN(C(=O)C4CCN(C(=O)C5CCN(c6ccc(C7CCC(=O)NC7=O)cc6)CC5)CC4)CC3)nc(NC3CC3)c21 (stereo partly drawn) [Example 66, 3-(4-(4-(4-(6-(4-(cyclopropylamino)-3-isopropyl-3H-imidazo[4,5-c]pyridin-6-yl)-2-oxo-1-((1S,3S)-3-(piperidin-1-yl)cyclobutyl)spiro[indoline-3,4′-piperidine]-1′-carbonyl)piperidine-1-carbonyl)piperidin-1-yl)phenyl)piperidine-2,6-dione]
100 to 500	70 to 85	CC(C)n1cnc2cc(-c3ccc4c(c3)N([C@H]3C[C@@H](N5CCCCC5)C3)C(=O)C43CCN(C(=O)[C@@H]4CCN(C(=O)[C@H]5CC[C@H](Nc6ccc(C7CCC(=O)NC7=O)cn6)CC5)C4)CC3)nc(NC3CC3)c21 (mixture of isomers) [Example 5, (3RS)-3-(6-{[(1R,4R)-4-[(3R)-3-({6-[4-(cyclopropylamino)-3-(propan-2-yl)-3H-imidazo[4,5-c]pyridin-6-yl]-2-oxo-1-[(1S,3S)-3-(piperidin-1-yl)cyclobutyl]-1,2-dihydrospiro[indole-3,4′-piperidin]-1′-yl}carbonyl)pyrrolidine-1-carbonyl]cyclohexyl]amino}pyridin-3-yl)piperidine-2,6-dione]
100 to 500	70 to 85	Cc1cc(C2CCC(=O)NC2=O)ccc1N1CCC(C(=O)N2CCC(C)(C(=O)N3CCC4(CC3)C(=O)N([C@H]3C[C@@H](N5CCCCC5)C3)c3cc(-c5cc6ncn(C(C)C)c6c(NC6CC6)n5)ccc34)CC2)CC1 (mixture of isomers) [Example 226, (3RS)-3-(4-{4-[4-({6-[4-(cyclopropylamino)-3-(propan-2-yl)-3H-imidazo[4,5-c]pyridin-6-yl]-2-oxo-1-[(1S,3S)-3-(piperidin-1-yl)cyclobutyl]-1,2-dihydrospiro[indole-3,4′-piperidin]-1′-yl}carbonyl)-4-methylpiperidine-1-carbonyl]piperidin-1-yl}-3-methylphenyl)piperidine-2,6-dione]
< 100	70 to 85	CC(C)n1cnc2cc(-c3ccc4c(c3)N([C@H]3C[C@@H](N5CCCCC5)C3)C(=O)C43CCN(C(=O)C4CCN(C(=O)C5CCN(c6ccc(C7CCC(=O)NC7=O)cc6)CC5)CC4)CC3)nc(Nc3ccncc3F)c21 (stereo partly drawn) [Example 68, 3-(4-(4-(4-(6-(4-((3-fluoropyridin-4-yl)amino)-3-isopropyl-3H-imidazo[4,5-c]pyridin-6-yl)-2-oxo-1-((1S,3S)-3-(piperidin-1-yl)cyclobutyl)spiro[indoline-3,4′-piperidine]-1′-carbonyl)piperidine-1-carbonyl)piperidin-1-yl)phenyl)piperidine-2,6-dione]
100 to 500	50 to 70	CC(C)n1cnc2cc(-c3ccc4c(c3)N([C@H]3C[C@@H](N5CCCCC5)C3)C(=O)C43CCN(C(=O)[C@H]4C[C@@H](C)CN(C(=O)C5CCN(c6ccc(C7CCC(=O)NC7=O)cn6)CC5)C4)CC3)nc(NC3CC3)c21 (mixture of isomers) [Example 246, (3RS)-3-(6-{4-[(3S,5R)-3-({6-[4-(cyclopropylamino)-3-(propan-2-yl)-3H-imidazo[4,5-c]pyridin-6-yl]-2-oxo-1-[(1S,3S)-3-(piperidin-1-yl)cyclobutyl]-1,2-dihydrospiro[indole-3,4′-piperidin]-1′-yl}carbonyl)-5-methylpiperidine-1-carbonyl]piperidin-1-yl}pyridin-3-yl)piperidine-2,6-dione]
< 100	> 85	CC(C)n1cnc2cc(-c3ccc4c(c3)N([C@H]3C[C@@H](N5CCCCC5)C3)C(=O)C43CCN(C(=O)C4(C(F)F)CCN(C(=O)C5CCN(c6ccc(C7CCC(=O)NC7=O)cn6)CC5)CC4)CC3)nc(NC3CC3)c21 (mixture of isomers) [Example 276, (3RS)-3-(6-{4-[4-({6-[4-(cyclopropylamino)-3-(propan-2-yl)-3H-imidazo[4,5-c]pyridin-6-yl]-2-oxo-1-[(1S,3S)-3-(piperidin-1-yl)cyclobutyl]-1,2-dihydrospiro[indole-3,4′-piperidin]-1′-yl}carbonyl)-4-(difluoromethyl)piperidine-1-carbonyl]piperidin-1-yl}pyridin-3-yl)piperidine-2,6-dione]
< 100	70 to 85	CC(C)n1cnc2cc(-c3ccc4c(c3)N([C@H]3C[C@@H](N5CCC[C@H](F)C5)C3)C(=O)C43CCN(C(=O)C4(C)CCN(C(=O)C5CCN(c6ccc(C7CCC(=O)NC7=O)cn6)CC5)CC4)CC3)nc(NC3CC3)c21 (mixture of isomers) [Example 203, (3RS)-3-(6-{4-[4-({6-[4-(cyclopropylamino)-3-(propan-2-yl)-3H-imidazo[4,5-c]pyridin-6-yl]-2-oxo-1-[(1S,3S)-3-[(3S)-3-fluoropiperidin-1-yl]cyclobutyl]-1,2-dihydrospiro[indole-3,4′-piperidin]-1′-yl}carbonyl)-4-methylpiperidine-1-carbonyl]piperidin-1-yl}pyridin-3-yl)piperidine-2,6-dione]
100 to 500	50 to 70	CC(C)n1cnc2cc(-c3ccc4c(c3)N([C@H]3C[C@@H](N5CCCCC5)C3)C(=O)C43CCN(C(=O)C4CCN(C(=O)C5CCN(c6ncc(C7CCC(=O)NC7=O)cn6)CC5)CC4)CC3)nc(Nc3ccncc3F)c21 (mixture of isomers) [Example 91, (3RS)-3-[2-(4-{4-[(6-{4-[(3-Fluoropyridin-4-yl)amino]-3-(propan-2-yl)-3H-imidazo[4,5-c]pyridin-6-yl}-2-oxo-1-[(1S,3S)-3-(piperidin-1-yl)cyclobutyl]-1,2-dihydrospiro[indole-3,4′-piperidin]-1′-yl)carbonyl]piperidine-1-carbonyl}piperidin-1-yl)pyrimidin-5-yl]piperidine-2,6-dione]
< 100	70 to 85	CC(C)n1cnc2cc(-c3ccc4c(c3)N([C@H]3C[C@@H](N5CCCCC5)C3)C(=O)C43CCN(C(=O)C4(C)CCN(C(=O)C5CCN(c6ccc(C7CCC(=O)NC7=O)cn6)CC5)CC4)CC3)nc(N3CC(C#N)C3)c21 (stereo partly drawn) [Example 175, 1-{6-[1′-(1-{1-[5-(2,6-dioxopiperidin-3-yl)pyridin-2-yl]piperidine-4-carbonyl}-4-methylpipe-ridine-4-carbonyl)-2-oxo-1-[(1S,3S)-3-(piperidin-1-yl)cyclobutyl]-1,2-dihydrospiro[indole-3,4′-pi-peridin]-6-yl]-3-(propan-2-yl)-3H-imidazo[4,5-c]pyridin-4-yl}azetidine-3-carbonitrile]
< 100	70 to 85	CC(C)n1cnc2cc(-c3ccc4c(c3)N([C@H]3C[C@@H](N5CCCCC5)C3)C(=O)C43CCN(C(=O)C4(C)CCN(C(=O)[C@H]5CC[C@H](Oc6ccc(C7CCC(=O)NC7=O)cc6)CC5)CC4)CC3)nc(Nc3ccncc3F)c21 (mixture of isomers) [Example 103, (3RS)-3-(4-{[(1R,4R)-4-{4-[(6-{4-[(3-Fluoropyridin-4-yl)amino]-3-(propan-2-yl)-3H-imidazo[4,5-c]pyridin-6-yl}-2-oxo-1-[(1S,3S)-3-(piperidin-1-yl)cyclobutyl]-1,2-dihydrospiro[indole-3,4′-piperidin]-1′-yl)carbonyl]-4-methylpiperidine-1-carbonyl}cyclohexyl]oxy}phenyl)piperidine-2,6-dione]
500 to 1000	70 to 85	CC(C)n1cnc2cc(-c3ccc4c(c3)N([C@H]3C[C@@H](N5CCCCC5)C3)C(=O)C43CCN(C(=O)[C@@H]4CCN(C(=O)[C@H]5CC[C@H](Nc6cccc(C7CCC(=O)NC7=O)n6)CC5)C4)CC3)nc(Nc3ccccc3F)c21 (mixture of isomers) [Example 8, (3RS)-3-(6-{1[(1R,4R)-4-[(3R)-3-[(6-{4-[(2-fluorophenyl)amino]-3-(propan-2-yl)-3H-imidazo[4,5-c]pyridin-6-yl}-2-oxo-1-[(1S,3S)-3-(piperidin-1-yl)cyclobutyl]-1,2-dihydrospiro[indole-3,4′-piperidin]-1′-yl)carbonyl]pyrrolidine-1-carbonyl]cyclohexyl]amino}pyridin-2-yl)piperidine-2,6-dione]

SMILES	DC50 [nM]	Dmax [%]
CC(C)n1cnc2cc(-c3ccc4c(c3)N([C@H]3C[C@@H](N5CCCCC5)C3)C(=O)C43CCN(CC(=O)N(C)C4CCN(C(=O)C5CCN(c6ccc(C7CCC(=O)NC7=O)cn6)CC5)CC4)CC3)nc(NC3CC3)c21 (stereo partly drawn) [Example 200, 2-{6-[4-(cyclopropylamino)-3-(propan-2-yl)-3H-imidazo[4,5-c]pyridin-6-yl]-2-oxo-1-[(1S,3S)-3-(piperidin-1-yl)cyclobutyl]-1,2-dihydrospiro[indole-3,4′-piperidin]-1′-yl}-N-(1-{1-[5-(2,6-dioxopiperidin-3-yl)pyridin-2-yl]piperidine-4-carbonyl}piperidin-4-yl)-N-methylacetamide]	100 to 500	> 85
